In ChEMBL document CHEMBL3352190, “New benzothieno[3,2-d]-1,2,3-triazines with antiproliferative activity: synthesis, spectroscopic studies, and biological activity” (2014) one finds Activity, GI50 and Kb data, which are given here for 12 compounds.

Molecules are shown by their SMILES. Calls of active or inactive are those of the source. No cut-off for these calls is given here.

Assay [1] has as its system Calf thymus DNA. The assay can be described thus: Binding affinity to calf thymus DNA assessed as DNA intercalation by viscosity study. Conditions: Bos taurus. It counts as nucleic-acid assay.
In assay [2] the test system is HeLa. The assay can be described thus: Cytotoxicity against human HeLa cells assessed as reduction in cell viability after 48 hrs by MTT assay. It counts as functional. (In general: Formazan colour is commonly taken as a measure of viable cells.)
The test system of assay [3] is HeLa. The assay can be described thus: Cytotoxicity against human HeLa cells assessed as reduction in cell viability by MTT assay. In kind it is functional, cell-based. Conditions: TDE = time-dependent effect.
Assay [4] deals with HeLa. The assay can be described thus: Cytotoxicity against human HeLa cells assessed as reduction in cell viability after 24 to 48 hrs by MTT assay. In kind it is functional.
The subject of assay [5] is HeLa. In words: Cytotoxicity against human HeLa cells assessed as reduction in cell viability after 24 hrs by MTT assay. It counts as functional.
Assay [6] deals with HeLa. The assay can be described thus: Cell cycle arrest in human HeLa cells assessed as accumulation of G0/G1 phase after 12 to 24 hrs by flow cytometry. It counts as functional, cell-based. (A flow cytometer gives signals particle by particle.)
In assay [7] the test system is HeLa. The assay can be described thus: Cytotoxicity against human HeLa cells assessed as reduction in plasma membrane integrity at 1 to 50 uM by LDH release assay. It counts as functional, cell-based. For orientation: LDH in the medium is a marker of cell lysis.
Assay [8] concerns HeLa. In words: Cell cycle arrest in human HeLa cells assessed as accumulation of cells at sub-G1 phase at 8.8 uM after 24 hrs by flow cytometry. In kind it is functional, cell-based.
For assay [9], the system named is Calf thymus DNA. In words: Binding affinity to calf thymus DNA assessed by UV-vis spectroscopy. It counts as nucleic-acid assay. Conditions: Bos taurus.
For assay [10], the system named is Calf thymus DNA. The assay can be described thus: Binding affinity to calf thymus DNA assessed as change in CD spectrum of DNA by CD titration method. In kind it is nucleic-acid assay. Conditions: Bos taurus.
For assay [11], the system named is Calf thymus DNA. The assay can be described thus: Binding affinity to calf thymus DNA assessed as hypochromic effect by UV-vis spectroscopy. It counts as nucleic-acid assay. Further details: concentration or dose not given beside the values. Conditions: Bos taurus.
The test system of assay [12] is HeLa. In words: Cell cycle arrest in human HeLa cells at 8.8 uM after 12 hrs by flow cytometry. In kind it is functional, cell-based.
Assay [13] deals with HeLa. In words: Cell cycle arrest in human HeLa cells assessed as supression of G2/M phase after 12 to 24 hrs by flow cytometry. It counts as functional, cell-based.
For assay [14], the system named is HeLa. The assay can be described thus: Cell cycle arrest in human HeLa cells at 4.4 uM after 24 hrs by flow cytometry. In kind it is functional, cell-based.

Broadly, the GI50 is the concentration giving 50% growth inhibition. For `CCOC(=O)c1sc2ccccc2c1/N=N/Nc1ccc(F)c(Cl)c1`, in the assay with Calf thymus DNA [1], the outcome was inactive. The GI50 amounted to 12.9 µM in the assay on HeLa [2] and 31.4 µM in the assay with HeLa [5]. The Activity result in the assay on HeLa [3] is “tde”; in the assay with HeLa [4], “Dose-dependent effect”.
Take `COc1ccc(-n2nnc3c(sc4ccccc43)c2=O)cc1`: the result in the assay on Calf thymus DNA [1], with HeLa [8], with Calf thymus DNA [10], in the assay with HeLa [12] and in the assay with HeLa [14] was Active. Moreover, the Activity entry in the assay on HeLa [6] is “Dose-dependent effect”; in the assay with HeLa [3], “tde”; in the assay with HeLa [4], “Dose-dependent effect”; with Calf thymus DNA [11] it was 28%; with HeLa [13] it was “Dose-dependent effect”. Besides, in the assay with HeLa [7], the outcome was inactive. In addition, the figures for the 50% growth inhibitory concentration (GI50) in the assay on HeLa [2] and in the assay with HeLa [5] were 1.24 µM and 4.37 µM, respectively. Also, the Kb in the assay with Calf thymus DNA [9] was 9.72 ×10⁴ /M.
Consider `O=c1c2sc3ccccc3c2nnn1-c1ccccc1`, for which, in the assay on Calf thymus DNA [1], the outcome was Active. The 50% growth inhibitory concentration (GI50) in the assay with HeLa [2] was 9.79 µM; in the assay on HeLa [5], 18.6 µM. For the same compound, the values for the Activity entry in the assay with HeLa [3], in the assay on HeLa [4] and in the assay with Calf thymus DNA [11] were “tde”, “Dose-dependent effect” and 85%, respectively. The same compound displayed a Kb in the assay on Calf thymus DNA [9] of 6.67 ×10⁵ /M. Moreover, in the assay with Calf thymus DNA [10], the result was inactive.
For the compound `CCOC(=O)c1sc2ccccc2c1/N=N/Nc1ccc(C)cc1`, in the assay on Calf thymus DNA [1], the outcome was inactive. Also, the GI50 was found to be 18.3 µM in the assay with HeLa [2] and 42.1 µM in the assay on HeLa [5]. For the same compound, the Activity result in the assay with HeLa [3] was “tde”; with HeLa [4], “Dose-dependent effect”.
Consider `Cn1nnc2c(C(N)=O)ncn2c1=O` [TEMOZOLOMIDE], for which, in the assay on HeLa [4], the concentration for 50% growth inhibition (GI50) was > 50 µM.
As for `O=c1c2sc3ccccc3c2nnn1-c1ccc(F)c(Cl)c1`, the outcome in the assay with Calf thymus DNA [1] and in the assay on HeLa [7] was inactive. Besides, the GI50 came out at 2.45 µM in the assay with HeLa [2] and 6.35 µM in the assay on HeLa [5]. The results for the Activity entry in the assay with HeLa [3] and in the assay on HeLa [4] were “tde” and “Dose-dependent effect”, respectively.
Take `CCOC(=O)c1sc2ccccc2c1/N=N/Nc1ccccc1`: the outcome with Calf thymus DNA [1] and with Calf thymus DNA [10] was Active. Also, the GI50 with HeLa [2] amounted to 26.1 µM; in the assay with HeLa [5], 49.3 µM. Further, the Activity entry with HeLa [3] is “tde”; with HeLa [4], “Dose-dependent effect”; in the assay with Calf thymus DNA [11], 12%. This compound also displayed a Kb in the assay with Calf thymus DNA [9] of 9.87 ×10⁵ /M.
Regarding `CCOC(=O)c1sc2ccccc2c1/N=N/Nc1cc(OC)c(OC)c(OC)c1`, the result in the assay with Calf thymus DNA [1] was Active. Also, the 50% growth inhibitory concentration (GI50) with HeLa [2] was determined as 14.4 µM; with HeLa [5] it was 22.8 µM. Moreover, the Activity entry in the assay on HeLa [3] was “tde”; in the assay with HeLa [4], “Dose-dependent effect”; with Calf thymus DNA [11], 11%. The compound further displayed a Kb in the assay with Calf thymus DNA [9] of 4.14 ×10⁶ /M. Also, in the assay with Calf thymus DNA [10], the outcome was inactive.
As for `COc1cc(-n2nnc3c(sc4ccccc43)c2=O)cc(OC)c1OC`, in the assay with Calf thymus DNA [1], the result was Active. The GI50 in the assay with HeLa [2] amounted to 9.44 µM; in the assay on HeLa [5], 20.7 µM. Moreover, the Activity entry in the assay with HeLa [3] is “tde”; in the assay on HeLa [4] it was “Dose-dependent effect”; in the assay on Calf thymus DNA [11], 29%. Also, the Kb in the assay on Calf thymus DNA [9] came to 9.84 ×10⁵ /M. The outcome in the assay on Calf thymus DNA [10] was inactive.
Turning to `CN(C)/N=N/c1[nH]cnc1C(N)=O` [DACARBAZINE], in the assay on HeLa [4], the concentration for 50% growth inhibition (GI50) was > 50 µM.
With `Cc1ccc(-n2nnc3c(sc4ccccc43)c2=O)cc1`, the outcome with Calf thymus DNA [1] and in the assay with Calf thymus DNA [10] was Active. Also, the outcome with HeLa [7] was inactive. In addition, the GI50 was determined as 1.88 µM with HeLa [2] and 5.32 µM with HeLa [5]. The values for the Activity entry in the assay with HeLa [3], with HeLa [4] and in the assay with Calf thymus DNA [11] were “tde”, “Dose-dependent effect” and 25%, respectively. Further, the Kb in the assay with Calf thymus DNA [9] was found to be 1.23 ×10⁵ /M.
On to `CCOC(=O)c1sc2ccccc2c1/N=N/Nc1ccc(OC)cc1`, for which the GI50 with HeLa [2] was found to be 17.4 µM; with HeLa [5], 49.1 µM. In addition, the Activity entry in the assay with HeLa [3] was “tde”; with HeLa [4], “Dose-dependent effect”.
